# From US9303017B2, “2,5-disubstituted-pyridyl nicotinic ligands, and methods of use thereof” (Georgetown University, priority 2011, dated 2016)
# Tested on: ferrets
# Test: Emesis studies in ferrets
# Type: in vivo, ferret (Mustela putorius furo)
# Conditions: 1-30 mg/kg s.c., 1 hr observation
# Protocol: Emetic Effects of Compound (S)-15 (YL-1-127) in Ferrets. Effects of (S)-15 in causing nausea and emesis were assessed in a ferret model. For comparison, varenicline was also tested. […] In general, all animals remained alert and active with periods of inactivity that mirrored their baseline behavior within the 1 hr observation period.
# In one animal, this behavior was accompanied by oral stereotypy (licking), whereas in two animals it was interspersed by episodes of backward walking. On the average, these behaviors manifested around ˜2.20 min. […] Occasionally, when animals tried to ambulate they would immediately cease their movement after each attempt. This would be followed by a momentary increase in breathing, giving the impression that the animal was in distress.
# General Procedures for Emesis Studies in Ferrets. Studies were undertaken in male ferrets (Mustela putorius furo) weighing 0.9-1.5 kg (Marshall Farms, N.Y.). They were housed in controlled conditions of room temperature (22° C.) and light (12:12 h light-dark cycle) with free access to food and water. Prior to each experiment, food was withheld overnight, whereas water was provided ad libitum.
# Emetic testing consisted of placing animals individually in a polycarbonate enclosure. Following a 30 min acclimation period, each animal randomly received a subcutaneus injection of varencline or compound (S)-15 (YL-1-127) in the subscapular region. A 60 min observation and video recording followed the drug administration. […] All drugs were dissolved in sterile saline.
# Video analysis of the incidence of emesis, stereotypical behaviors (such as licking, mouth-clawing, backward walking, gagging, and burying of the head in cage) and GI side effects (diarrhea) was done off-line. Stereotypical behaviors are thought to be reflective of a subjective sensation of nausea. The emetic index of a drug was calculated as the […] of animals displaying emesis (one or more times in 60 min) divided by the total number of animals tested. An emetic episode was defined as the forceful oral expulsion of liquid or solid upper gastrointestinal contents that is temporally separated from another by at least 30 s.
# The Nausea Index for the stereotypical behaviors was derived from the mean±SEM number of nausea behaviors observed among all animals in a given treatment group. Significance was determined at p<0.05.
structure (smiles),measurement,value
"CCCCC#Cc1cnc(C)c(OC[C@@H]2CCN2)c1 [(S)-15, (S)-3-(azetidin-2-ylmethoxy)-5-(hex-1-ynyl)-2-methylpyridine]",emetic episodes or stereotypical behaviors indicative of nausea,did not elicit any emetic episodes or stereotypical behaviors
